Measured values reported in article PMC11571207, “Stereorandomized Oncocins with Preserved Ribosome Binding and Antibacterial Activity” (Journal of Medicinal Chemistry, 2024).
pKd: −log10 of the molar value. ≈ marks a conversion by molar mass, not a printed value. Where “and” joins values, the source holds several entries; their conditions need not be identical. Equal values may be shown once. Entries after “also recorded” stand apart in the source; their conditions may differ. Read-outs that look alike come from different tables or passages of the source. Non-standard residues stand in square brackets, D forms with d. Residues, ends and D or L forms follow the SMILES beside them. No end group written: not given here.

Legend:
[1] = 25% (v/v) human serum in 0.1 M TRIS buffer pH 7.4, peptide 200 μM, 37 °C, 0/24/48/72 h, LC-MS UV trace vs 4-hydroxybenzoic acid internal standard, n = 3
Description: Human serum was diluted in 0.1 M filtered TRIS buffer pH 7.4 (50%, 1:1, v/v). Selected peptides were diluted in 0.1 M filtered TRIS buffer pH 7.4 to a concentration of 400 μM and 0.1 mg/mL 4- hydroxybenzoic acid was added as internal standard. Aliquots of peptide solution (300 μL) were added to aliquots of serum (300 μL) in sterile 1.5 mL Eppendorf tubes, to reach a peptide concentration of 200 μM and 25% (v/v) human serum during the assay. Samples, in triplicate, were incubated at 37 °C under gentle stirri ng (200 rpm). At different time points (0, 24, 48 and 72 hours), 100 μL of each sample was collected and quenched by precipitating serum proteins through the addition of (0.1 M) ZnSO4·7 H2O / ACN (1:1) (0.1 M, 100 μL) and cooling in ice bath for 10 minutes. Protein precipitates were pelleted under centrifugation (5 min at 14’000 rpm) and the supernatants were analysed by LC-MS. Peaks corresponding to the internal standard and the undegraded peptides were integrated from the area under the curves (AUC) of UV traces, with the ratio peptide/standard at t = 0 h as 100%.
Figure S7. Serum stability assay of the respective compound (200 μM), incubated with human serum (25% in TRIS buffer, 0.1 M, pH 7.4) at 37 °C. Aliquots were taken at different time (0 / 24 / 48 and 72 h). Undegraded peptide values determined by RP -HPLC analysis usi ng hydroxybenzoic acid as internal standard. Measured in triplicates and the data represent mean ± SD, n […]
(1 picture or pasted object on this page, not shown here)

DnaK = biological target: T1, DnaK (Escherichia coli, UniProt P0A6Y8); assay: Microscale thermophoresis with His-Tag-labeled DnaK; type: binding; conditions: MST buffer
T1 construct: made in house; host or cells: E. coli BL21(DE3), pET28a T7 vector (synthetic gene, GenScript)
Description: A plasmid containing the DnaK insert was designed in SnapGene and ordered commercially as a synthetic gene (Figure S11). Chemically competent BL21(DE3) cells were transformed with the plasmid vector (GenScript), and positive transformants were selected on LB + Kanamycin agar. For protein expression, 6 mL of overnight cultures inoculated with a single colony were used to initiate shake-flask expression at 300 mL scale in LB + kanamycin ([…]) + 1 mM IPTG. The flasks were cultured overnight at 220 rpm, 37 °C, and the bacteria were harvested by centrifugation the next day. Pelleted cells were stored at −20 °C. […] The collected fractions were analyzed by SDS-PAGE. […]
DnaK labeling was performed using the Nanotemper Monolith His-Tag Labeling Kit RED-tris-NTA Second Generation. […] The fluorescence variation between the samples was measured in 4 replicates with the Monolith NT.115 device in Monolith NT.115 Premium Capillaries and analyzed with the MOcontrol software (Figures S13–S15).
To each sample, 10 μL of 40 nM His-Tag-labeled DnaK was added, resulting in a final volume of 20 μL per sample. The fluorescence variations between the samples were measured by using the Monolith NT.115 device with Monolith NT.115 Premium Capillaries. The data were analyzed with MOcontrol software to determine the binding affinity between L-onc and His-Tag-labeled DnaK (Figure S16).

[2] = system: P. aeruginosa PA14 4.13 (phoQ); assay: microbe, parasite or virus in culture; conditions: Pseudomonas aeruginosa

T1 sequence (P0A6Y8 whole entry, species assumed): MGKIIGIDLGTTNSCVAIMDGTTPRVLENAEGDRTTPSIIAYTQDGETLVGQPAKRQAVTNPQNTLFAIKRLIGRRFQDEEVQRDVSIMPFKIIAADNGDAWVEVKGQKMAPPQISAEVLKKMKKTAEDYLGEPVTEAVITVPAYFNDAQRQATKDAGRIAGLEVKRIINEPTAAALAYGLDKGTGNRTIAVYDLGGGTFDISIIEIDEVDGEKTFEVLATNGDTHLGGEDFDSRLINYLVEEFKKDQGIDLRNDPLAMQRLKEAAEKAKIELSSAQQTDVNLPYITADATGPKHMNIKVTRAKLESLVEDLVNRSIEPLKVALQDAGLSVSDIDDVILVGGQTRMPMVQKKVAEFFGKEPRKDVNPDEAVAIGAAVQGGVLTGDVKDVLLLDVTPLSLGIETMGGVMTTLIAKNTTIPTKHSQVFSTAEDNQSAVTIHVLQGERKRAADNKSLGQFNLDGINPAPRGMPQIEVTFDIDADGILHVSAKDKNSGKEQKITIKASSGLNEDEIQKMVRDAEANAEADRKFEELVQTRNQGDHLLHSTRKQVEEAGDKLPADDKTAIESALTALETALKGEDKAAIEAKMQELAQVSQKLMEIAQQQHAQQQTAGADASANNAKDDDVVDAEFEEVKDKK

In the case of “VDKPPYLPRPRPPRRIYNR-NH2 [L-Onc, reference compound]”, the “Serum stability (undegraded peptide)” value [1] was “rapidly degraded” and the pKd (DnaK; 2-fold serial dilution from 100 μM, His-Tag-labeled DnaK, read-out: KD, apparent binding to DnaK) was 4.53 and ~4.52.
With “VDKPPYLPRPRPPRRIYNR [sr-Onc] (VDKPPYLPRPRPPRRIYNR-NH2; also: all 19 residues stereorandomized (1:1 L/D mixture)) [fully stereorandomized oncocin]” the DnaK binding check (DnaK; 20 nM His-Tag-labeled DnaK, 50 μM peptide, 4 replicates) was “negative for binding; also recorded: no detectable binding to DnaK”.
With `CC[C@H]1OC(=O)[C@H](C)[C@@H](O[C@H]2C[C@@](C)(OC)[C@@H](O)[C@H](C)O2)[C@H](C)[C@@H](O[C@@H]2O[C@H](C)C[C@H](N(C)C)[C@H]2O)[C@](C)(O)C[C@@H](C)CN(C)[C@H](C)[C@@H](O)[C@]1(C)O` [AZM, azithromycin, reference compound] the MIC ([2]; PA14, pH 7.4, read-out: MIC P. aeruginosa PA14 4.13 (phoQ), 12.5% MHB, polymyxin B resistant strain, 12.5% MHB pH 7.4, 16–20 h at 37 °C) was 16 to 32 µg/mL (≈ 21.4 to 42.7 µM) and the MIC ([2]; PA14, pH 7.4, read-out: MIC P. aeruginosa PA14 4.13, supplement CSV, 12.5% MH pH 7.4) was 16 to 32 µg/mL (≈ 21.4 to 42.7 µM).
With `CC[C@H](C)[C@H](NC(=O)[C@@H](CCCNC(=N)N)NC(=O)[C@H](CCCNC(=N)N)NC(=O)[C@@H]1CCCN1C(=O)[C@@H]1CCCN1C(=O)[C@H](CCCNC(=N)N)NC(=O)[C@@H]1CCCN1C(=O)[C@H](CCCNC(=N)N)NC(=O)[C@@H]1CCCN1C(=O)[C@H](CC(C)C)NC(=O)[C@H](Cc1ccc(O)cc1)NC(=O)[C@@H]1CCCN1C(=O)[C@@H]1CCCN1C(=O)[C@H](CCCCN)NC(=O)[C@H](CC(=O)O)NC(=O)[C@@H](N)C(C)C)C(=O)N[C@@H](Cc1ccc(O)cc1)C(=O)N[C@@H](CC(N)=O)C(=O)N[C@H](CCCNC(=N)N)C(N)=O` [Onc112, reference compound] (H-VDKPPYLPRPRPPR[dR]IYN[dR]-NH2) the “Serum stability (undegraded peptide)” value [1] was “essentially stable to degradation over 24 h”.
